Laboratory results: patent publication US11066443B2 (Hoffmann-La Roche Inc., priority 2017, dated 2021)

Tested on: P. aeruginosa NCTC11454
Assay: Antimicrobial susceptibility testing: 50% growth inhibitory concentration (IC50) determination
Format: cell-based
Details: Pseudomonas aeruginosa, Iso-Sensitest broth, OD 600 nm every 20 minutes over 16h, growth inhibition during logarithmic growth
Procedure: The in vitro antimicrobial activity of the compounds was alternatively determined according to the following procedure: The assay used a 10-points Iso-Sensitest broth medium to measure quantitatively the in vitro activity of the compounds against P. aeruginosa NCTC11454. Stock compounds in DMSO were serially twofold diluted (e.g. range from 50 to 0.097 μM final concentration) in 384 wells microtiter plates and inoculated with 49 μl the bacterial suspension in Iso-Sensitest medium to have a final cell concentration of ˜5×10^(5) CFU/ml in a final volume/well of 50 ul/well. Microtiter plates were incubated at 35±2° C. Bacterial cell growth was determined with the measurement of optical density at λ=600 nm each 20 minutes over a time course of 16h. Growth inhibition was calculated during the logarithmic growth of the bacterial cells with determination of the concentration inhibiting 50% (IC50) and 90% (IC90) of the growth. Table 2 provides the 50% growth inhibitory concentrations (IC50) in micromoles per liter of the compounds of present invention obtained against P. aeruginosa NCTC11454.

| Structure (SMILES) | IC50 [µM] |
| --- | --- |
| CN1C(=O)[C@H](CCCCN)NC(=O)[C@H](CCCN)NCc2ccccc2Sc2c(Cl)cc(-c3ccccc3Cl)cc2CNC(=O)[C@@H]1Cc1c[nH]c2ccccc12 [Example 33, (12S,15S,18S)-15-(4-Amino-butyl)-18-(3-amino-propyl)-4-chloro-6-(2-chloro-phenyl)-12-(1H-indol-3-ylmethyl)-13-methyl-2-thia-10,13,16,19-tetraaza-tricyclo[19.4.0.0*3,8*]pentacosa-1(25),3,5,7,21,23-hexaene-11,14,17-trione] | 9.02 |
| CN1C(=O)[C@H](CCCCN)NC(=O)[C@@H](CCCN)NCc2cccnc2Sc2c(ccc(-c3ccccc3)c2Cl)CNC(=O)[C@@H]1Cc1c[nH]c2ccccc12 [Example 27, (11R,14S,17S)-14-(4-Amino-butyl)-11-(3-amino-propyl)-25-chloro-17-(1H-indol-3-ylmethyl)-16-methyl-24-phenyl-2-thia-4,10,13,16,19-pentaaza-tricyclo[19.4.0.0*3,8*]pentacosa-1(25),3,5,7,21,23-hexaene-12,15,18-trione] | 11.3 |
| NCCCC[C@@H]1NC(=O)[C@H](CCCN)NCc2cccnc2Sc2c(ccc(-c3ccccc3)c2Cl)CNC(=O)[C@H](Cc2c[nH]c3ccccc23)NC1=O [Example 26, (11S,14S,17S)-14-(4-Amino-butyl)-11-(3-amino-propyl)-25-chloro-17-(1H-indol-3-ylmethyl)-24-phenyl-2-thia-4,10,13,16,19-pentaaza-tricyclo[9.4.0.0*3,8*]pentacosa-1(25),3,5,7,21,23-hexaene-12,15,18-trione] | 23.7 |
| CN1C(=O)[C@H](CCCCN)NC(=O)[C@H](CCCN)NCc2ccccc2Sc2ccc(Cl)cc2CNC(=O)[C@@H]1Cc1cn(C)c2ccccc12 [Example 6, (12S,15S,18S)-15-(4-Amino-butyl)-18-(3-amino-propyl)-6-chloro-13-methyl-12-(1-methyl-1H-indol-3-ylmethyl)-2-thia-10,13,16,19-tetraaza-tricyclo[19.4.0.0*3,8*]pentacosa-1(21),3,5,7,22,24-hexaene-11,14,17-trione] | 22.7 |
| CN1C(=O)[C@H](CCCCN)NC(=O)[C@H](CCCN)NCc2cccnc2Sc2c(Cl)ccc(-c3ccc(N4CCNCC4)cc3)c2CNC(=O)[C@@H]1Cc1c[nH]c2ccccc12 [Example 55, (11S,14S,17S)-14-(4-Amino-butyl)-11-(3-amino-propyl)-25-chloro-17-(1H-indol-3-ylmethyl)-16-methyl-22-(4-piperazin-1-yl-phenyl)-2-thia-4,10,13,16,19-pentaaza-tricyclo[19.4.0.0*3,8*]pentacosa-1(25),3(8),4,6,21,2-hexaene-12,15,18-trione] | 26.6 |
| CN1C(=O)[C@H](CCCCN)NC(=O)[C@H](CCCN)NCc2ccccc2Sc2nc(N3CCOCC3)ccc2CNC(=O)[C@@H]1Cc1c[nH]c2ccccc12 [Example 46] | 20.3 |
| CN1C(=O)[C@H](CCCCN)NC(=O)[C@H](CCCN)NCc2cccnc2Sc2c(Cl)cc(-c3ccnc(Cl)c3)cc2CNC(=O)[C@@H]1Cc1c[nH]c2ccccc12 [Example 40, (11S,14S,17S)-14-(4-Amino-butyl)-11-(3-amino-propyl)-25-chloro-23-(2-chloro-pyridin-4-yl)-17-(1H-indol-3-ylmethyl)-16-methyl-2-thia-4,10,13,16,19-pentaaza-tricyclo[19.4.0.0*3,8*]pentacosa-1(21),3,5,7,22,24-hexaene-12,15,18-trione] | 25.1 |
| CN1C(=O)[C@H](CCCCN)NC(=O)[C@H](CCCN)NCc2ncccc2Sc2c(Cl)cc(C(F)(F)F)cc2CNC(=O)[C@@H]1Cc1c[nH]c2ccccc12 [Example 24, (11S,14S,17S)-14-(4-Amino-butyl)-11-(3-amino-propyl)-25-chloro-17-(1H-indol-3-ylmethyl)-16-methyl-23-trifluoromethyl-2-thia-7,10,13,16,19-pentaaza-tricyclo[19.4.0.0*3,8*]pentacosa-1(25),3,5,7,21,23-hexaene-12,15,18-trione] | 22.4 |
| CN1C(=O)[C@H](CCCCN)NC(=O)[C@H](CCCN)NCc2ccccc2Sc2c(Cl)cc(-c3cccnc3)cc2CNC(=O)[C@@H]1Cc1c[nH]c2ccccc12 [Example 34, (12S,15S,18S)-15-(4-Amino-butyl)-18-(3-amino-propyl)-4-chloro-12-(1H-indol-3-ylmethyl)-13-methyl-6-pyridin-3-yl-2-thia-10,13,16,19-tetraaza-tricyclo[19.4.0.0*3,8*]pentacosa-1(25),3,5,7,21,23-hexaene-11,14,17-trione] | 27.8 |

Other lines, results leading:

| IC50 [µM] | Structure (SMILES) |
| --- | --- |
| 8.1 | CN1C(=O)[C@H](CCCCN)NC(=O)[C@H](CCCN)NCc2cccnc2Sc2c(Cl)cc(-c3ccccc3)cc2CNC(=O)[C@@H]1Cc1c[nH]c2ccccc12 [Example 35, 11-(3-amino-propyl)-25-chloro-17-(1H-indol-3-ylmethyl)-16-methyl-23-phenyl-2-thia-4,10,13,16,19-pentaaza-tricyclo[9.4.0.0*3,8*]pentacsa-(25),3(8),4,6,21,23-hexaene-12,15,18-trione] |
| 6.07 | CN1C(=O)[C@H](CCCCN)NC(=O)[C@H](CCCN)NCc2cccnc2Sc2c(Cl)cc(C#CCOCc3ccccc3)cc2CNC(=O)[C@@H]1Cc1c[nH]c2ccccc12 [Example 45, (11S,14S,17S)-14-(4-Amino-butyl)-11-(3-amino-propyl)-23-(3-benzyloxy-prop-1-ynyl)-25-chloro-17-(1H-indol-3-ylmethyl)-16-methyl-2-thia-4,10,13,16,19-pentaaza-tricyclo[19.4.0.0*3,8*]pentacosa-1(25),3(8),4,6,21,23-hexaene-12,15,18-trione] |
| 25.3 | NCCCC[C@@H]1NC(=O)[C@@H](CCCN)NCc2cccnc2Sc2c(ccc(-c3ccccc3)c2Cl)CNC(=O)[C@H](Cc2c[nH]c3ccccc23)NC1=O [Example 25, (11R,14S,17S)-14-(4-Amino-butyl)-11-(3-amino-propyl)-25-chloro-17-(1H-indol-3-ylmethyl)-24-phenyl-2-thia-4,10,13,16,19-pentaaza-tricyclo[9.4.0.0*3,8*]pentacosa-1(25),3,5,7,21,23-hexaene-12,15,18-trione] |
| 24.5 | CN1C(=O)[C@H](CCCCN)NC(=O)[C@H](CCCN)NCc2ccccc2Sc2ccc(Cl)c(Cl)c2CNC(=O)[C@@H]1Cc1c[nH]c2ccccc12 [Example 9, (12S,15S,18S)-15-(4-Amino-butyl)-18-(3-amino-propyl)-6,7-dichloro-12-(1H-indol-3-ylmethyl)-13-methyl-2-thia-10,13,16,19-tetraaza-tricyclo[19.4.0.0*3,8*]pentacosa-1(25),3,5,7,21,23-hexaene-11,14,17-trione] |
| 11.1 | CN1C(=O)[C@H](CCCN)NC(=O)[C@H](CCCN)NCc2ccccc2Sc2c(Cl)cc(Cl)cc2CNC(=O)[C@@H]1Cc1c[nH]c2ccccc12 [Example 30, (12S,15S,18S)-15,18-Bis-(3-amino-propyl)-4,6-dichloro-12-(1H-indol-3-ylmethyl)-13-methyl-2-thia-10,13,16,19-tetraaza-tricyclo[19.4.0.0*3,8*]pentacosa-1(25),3,5,7,21,23-hexaene-11,14,17-trione] |
| 24.4 | CN1C(=O)[C@H](CCCCN)NC(=O)[C@H](CCCN)NCc2ccccc2Sc2ccccc2CNC(=O)[C@@H]1Cc1c[nH]c2cc(Cl)ccc12 [Example 5, (12S,15S,18S)-15-(4-Amino-butyl)-18-(3-amino-propyl)-12-(6-chloro-1H-indol-3-ylmethyl)-13-methyl-2-thia-10,13,16,19-tetraaza-tricyclo[19.4.0.0*3,8*]pentacosa-1(21),3,5,7,22,24-hexaene-11,14,17-trione] |
| 25.4 | CN1C(=O)[C@H](CCCCN)NC(=O)[C@H](CCCN)NCc2cccnc2Sc2c(Cl)ccc(C(F)(F)F)c2CNC(=O)[C@@H]1Cc1c[nH]c2ccc(Cl)cc12 [Example 31, (11S,14S,17S)-14-(4-Amino-butyl)-11-(3-amino-propyl)-25-chloro-17-(5-chloro-1H-indol-3-ylmethyl)-16-methyl-22-trifluoromethyl-2-thia-4,10,13,16,19-pentaaza-tricyclo[19.4.0.0*3,8*]pentacosa-1(25),3,5,7,21,23-hexaene-12,15,18-trione] |
| 13.2 | CN1C(=O)[C@H](CCCCN)NC(=O)[C@H](CCCN)NCc2ccccc2Sc2ccc(Cl)cc2CNC(=O)[C@@H]1Cc1cn(C)c2cc(Cl)ccc12 [Example 8, (12S,15S,18S)-15-(4-Amino-butyl)-18-(3-amino-propyl)-6-chloro-12-(6-chloro-1-methyl-1H-indol-3-ylmethyl)-13-methyl-2-thia-10,13,16,19-tetraaza-tricyclo[19.4.0.0*3,8*]pentacosa-1(21),3,5,7,22,24-hexaene-11,14,17-trione] |
| 12.3 | CN1C(=O)[C@H](CCCCN)NC(=O)[C@H](CCCN)NCc2ccc(Br)cc2Sc2c(Cl)cccc2CNC(=O)[C@@H]1Cc1c[nH]c2ccccc12 [Example 51, (12S,15S,18S)-15-(4-Amino-butyl)-18-(3-amino-propyl)-24-bromo-4-chloro-12-(1H-indol-3-ylmethyl)-13-methyl-2-thia-10,13,16,19-tetraaza-tricyclo[19.4.0.0*3,8*]pentacosa-1(25),3,5,7,21,23-hexaene-11,14,17-trione] |
| 29.1 | CN1C(=O)[C@H](CCCCN)NC(=O)[C@H](CCCN)NCc2cccnc2Sc2c(Cl)ccc(-c3cccc(CCN)c3)c2CNC(=O)[C@@H]1Cc1c[nH]c2ccccc12 [Example 54, (11S,14S,17S)-14-(4-Amino-butyl)-22-[3-(2-amino-ethyl)-phenyl]-11-(3-amino-propyl)-25-chloro-17-(1H-indol-3-ylmethyl)-16-methyl-2-thia-4,10,13,16,19-pentaaza-tricyclo[19.4.0.0*3,8*]pentacosa-1(25),3(8),4,6,21,23-hexaene-12,15,18-trione] |
